Experimental findings from PMC8041433 (Environmental Health Perspectives, 2021) are described below.

Experiment [1] concerns the target T1, recombinant human AChE (Homo sapiens, UniProt P22303). In words: biochemical. It counts as biochemical. Conditions: for AC50: AC50 (uM).
Experiment [2] deals with AChE in neural stem cells (Homo sapiens, UniProt P22303). Description: cell-based.
Experiment [3] has as its target T1, recombinant human AChE. In words: biochemical.
Experiment [4] addresses AChE in SH-SY5Y cells (Homo sapiens, UniProt P22303). Description: cell-based.
The target in experiment [5] is AChE in neural stem cell spheroids (Homo sapiens, UniProt P22303). In words: cell-based. The note with it: for IC50: potency (IC50).
Chain of AChE in neural stem cell spheroids (P22303 32-614): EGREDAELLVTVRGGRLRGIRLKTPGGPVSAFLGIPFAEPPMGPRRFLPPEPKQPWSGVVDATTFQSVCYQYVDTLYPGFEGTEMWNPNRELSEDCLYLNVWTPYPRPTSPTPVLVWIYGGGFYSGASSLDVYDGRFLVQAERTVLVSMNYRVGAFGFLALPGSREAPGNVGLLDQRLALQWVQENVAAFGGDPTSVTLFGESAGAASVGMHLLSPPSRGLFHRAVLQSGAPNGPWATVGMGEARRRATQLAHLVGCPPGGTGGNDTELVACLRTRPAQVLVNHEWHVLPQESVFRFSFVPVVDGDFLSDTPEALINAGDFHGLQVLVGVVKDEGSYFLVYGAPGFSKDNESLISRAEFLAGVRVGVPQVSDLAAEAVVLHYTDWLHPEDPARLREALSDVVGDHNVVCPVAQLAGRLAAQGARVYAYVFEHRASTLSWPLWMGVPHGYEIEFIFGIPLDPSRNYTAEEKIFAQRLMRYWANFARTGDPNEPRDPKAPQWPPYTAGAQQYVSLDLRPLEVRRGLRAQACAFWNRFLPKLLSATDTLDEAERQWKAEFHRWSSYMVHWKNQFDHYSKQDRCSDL
In experiment [6] the target is T1, recombinant human AChE. In words: biochemical. The source holds these as a separate data set.
The target of experiment [7] is T1, recombinant human AChE. Description: biochemical. This is another data set of the same source.
The target in experiment [8] is AChE in SH-SY5Y spheroids (Homo sapiens, UniProt P22303). Description: cell-based.
Chain of AChE in SH-SY5Y spheroids (P22303 32-614): as above
In experiment [9] the target is T1, recombinant human AChE.
Setting [10] is: potency (IC50), SH-SY5Y cells monolayer.
The mark [11] stands for this setting: Neural stem cell spheroid (24 h).
The mark [12] stands for this setting: Neural stem cell spheroid (48 h).
The mark [13] stands for this setting: potency (IC50), Enzyme with microsomes.
[14] abbreviates: potency (IC50), SH-SY5Y spheroids (24 h).
The mark [15] stands for this setting: potency (IC50), SH-SY5Y spheroids (48 h).

Structures are written as SMILES. Where “and” joins values, the source holds several entries; their conditions need not be identical. Equal values may be shown once. Read-outs that look alike come from different tables or passages of the source.
Wherever IR or R is given: key: Reversible (R); Irreversible (IR); ND, not detected in enzyme-based AChE inhibition assay from current study.

Chain of AChE in neural stem cells (P22303 32-614): as above
T1 sequence (P22303 32-614): as above
Chain of AChE in SH-SY5Y cells (P22303 32-614): as above

On to `CCOP(=S)(OCC)SC(CCl)N1C(=O)c2ccccc2C1=O` (stereo not drawn) [Dialifor], for which the “reversibility of AChE inhibition (result in words)” value in experiment [1] is recorded as “irreversibility”. Also, the IC50 in experiment [2] is 15.2 µM; in experiment [3] (potency (IC50), Enzyme), 41.1 µM; in experiment [4] (IC50 (uM)), 31.7 µM; in experiment [4] (setting [10]), 14.6 µM; in experiment [5] (setting [11]) it was 9.74 µM; in experiment [5] (setting [12]) it was 20.1 µM. For the same compound, the IC50 is 2.69 µM in experiment [6] (setting [13]), 28.1 ± 3.23 µM in [7], 25.7 µM in experiment [8] (setting [14]) and 15.7 µM in experiment [8] (setting [15]). The results for the “CC-v2 (curve classes)” value in [3], in experiment [4] and in [9] were -2.1, -2.1 and -1.1, respectively. In addition, the Efficacy is on record as -100.017 in experiment [3] and -102.338 in experiment [9].
Turning to `CCOP(=S)(OCC)OC(Cl)C(Cl)(Cl)Cl` (stereo not drawn) [Chlorethoxyfos], in experiment [1], the half-maximal activity concentration (AC50) stood at 1.57 µM. Besides, the IC50 in experiment [2] was found to be 46.2 µM; in [3] (IC50 (uM)), 79.6 µM; in experiment [3] (potency (IC50), Enzyme), 60.4 µM; in experiment [4] (IC50 (uM)) it was 35.6 µM; in [4] (setting [10]), 28.3 µM; in experiment [4] (read-out: IC50) it was 31.7 µM. Moreover, the IC50 in experiment [5] (setting [11]) was found to be 42.8 µM; in experiment [5] (setting [12]), 47 µM; in [6] (IC50 (uM)), 28.3 µM; in experiment [6] (setting [13]), 5.86 µM; in experiment [7], 65.2 ± 4.42 µM; in [8] (setting [14]), 33.2 µM. In experiment [8] (read-out: potency (IC50), SH-SY5Y spheroids (48 h)), the 50% inhibitory concentration (IC50) was determined as 37.3 µM. The “CC-v2 (curve classes)” value in experiment [3] is listed as -2.1; in experiment [4], -2.1; in experiment [9] it was -1.1. Also, the values for the Efficacy in experiment [3] and in experiment [9] were -89.198 and -100.975, respectively.
As to `CCOP(=S)(Oc1cnc(C(C)(C)C)nc1)OC(C)C` (stereo not drawn) [Tebupirimfos], the AC50 in [1] is 70.3 µM and 55.9 µM and 49.8 µM. Further, the IC50 in [2] is 9.97 µM; in [3] (potency (IC50), Enzyme), 46.2 µM; in experiment [3] (read-out: IC50), 63.3 µM; in [4] (IC50 (uM)) it was 39.9 µM and 35.6 µM; in experiment [4] (setting [10]), 20.1 µM; in [5] (setting [11]) it was 2.08 µM. The half-inhibitory concentration (IC50) in [5] (setting [12]) is 3.7 µM; in [6] (IC50 (uM)), 10 µM; in experiment [6] (setting [13]), 4.29 µM; in experiment [7] it was 42.8 ± 2.79 µM; in experiment [8] (setting [14]), 28.2 µM; in experiment [8] (setting [15]) it was 24.2 µM. Also, the “CC-v2 (curve classes)” value in [3] is given as -2.1; in experiment [4] it was -2.1; in [9], -1.1. Further, the Efficacy is reported as -96.664 in [3] and -95.03 in [9].
For `CCOP(=S)(OCC)Oc1ccc([N+](=O)[O-])cc1` [Parathion], the AC50 in experiment [1] (activity_5) is 24.3 µM and 30.6 µM; in [1] (activity_10), 27.3 µM and 24.3 µM; in experiment [1] (activity_60), 21.7 µM and 19.3 µM. Further, the IC50 in experiment [2] is 6.88 µM; in experiment [3] (potency (IC50), Enzyme), 22.8 µM; in experiment [4] (IC50 (uM)) it was 13.8 µM and 64.1 µM and 71.9 µM; in experiment [4] (setting [10]) it was 11.3 µM; in experiment [5] (setting [11]) it was 3.9 µM; in experiment [5] (setting [12]) it was 9.13 µM. The IC50 in experiment [6] (setting [13]) turned out to be 1.27 µM; in experiment [7] it was 18 ± 2.29 µM; in experiment [8] (setting [14]), 18.1 µM; in experiment [8] (setting [15]), 10.6 µM. The “CC-v2 (curve classes)” value is -2.1 in [4] and -1.1 in experiment [9].
Turning to `CNC(=C[N+](=O)[O-])NCCSCc1csc(CN(C)C)n1` [Nizatidine, reference compound], in [1], the “IR or R” value is “R”. Moreover, the AC50 in experiment [1] (activity_5) was 24.3 µM and 27.3 µM and 6.85 µM; in experiment [1] (activity_10) it was 21.7 µM and 27.3 µM and 30.6 µM; in experiment [1] (activity_60), 27.3 µM and 19.3 µM and 24.3 µM. The IC50 is 18.6 ± 1.21 µM in experiment [2]; 35.6 µM and 27.5 µM in experiment [3] (IC50 (uM)); 10.5 ± 0.68 µM in experiment [3] (potency (IC50), Enzyme); 14.2 µM and 12.6 µM and 12.3 µM and 13.8 µM and 11.2 µM in experiment [4] (IC50 (uM)); 7.68 µM in [4] (setting [10]); 20.1 ± 1.36 µM in experiment [6] (setting [13]). In addition, the IC50 was found to be 15.6 ± 3.57 µM in [7], 7.05 ± 1.96 µM in [8] (setting [14]) and 12.2 ± 1.41 µM in [8] (setting [15]). Also, the “CC-v2 (curve classes)” value in experiment [3] is -2.1; in [4], -1.1 and -2.1; in experiment [9], 4. Moreover, the “potency (IC50), Neural stem cell spheroid (24 h)” value in experiment [5] is “Inactive”.
In the case of `CCOP(=S)(OCC)OP(=S)(OCC)OCC` [Sulfotepp], the AC50 in [1] (activity_60) was 55.9 µM and 70.3 µM. Besides, the IC50 was 1.25 ± 0.14 µM in experiment [2]; 9.97 ± 1.14 µM in experiment [3] (potency (IC50), Enzyme); 5.02 µM and 8.18 µM and 2.52 µM and 5.16 µM and 2.24 µM and 2.59 µM in experiment [4] (IC50 (uM)); 0.96 ± 0.13 µM in experiment [4] (setting [10]); 0.06 ± 0.01 µM in experiment [5] (setting [11]); 0.1 ± 0.02 µM in experiment [5] (setting [12]). For the same compound, the IC50 in experiment [6] (setting [13]) came to 7.89 µM; in [7] it was 44.4 µM; in [8] (setting [14]), 15.3 ± 7.82 µM; in experiment [8] (setting [15]) it was 4.12 ± 0.28 µM. Moreover, the “CC-v2 (curve classes)” value is -2.1 in experiment [3], -1.1 in experiment [4] and -1.1 in experiment [9].

One may read the IC50 as the concentration that inhibits the measured activity by half. As usually defined, the AC50 is the concentration at which the activity in the assay is half-maximal.
